Data published in US6984727B1, “Gene involved in brassinosteroid responses” (National Institute of Agrobiological Science, priority 2000, dated 2006).

Tested on: second leaf of rice
Experiment: leaf blade bend response test (brassinosteroid response test)
Type: in vivo
Details: cut second leaf germinated in the dark, immersed in 1 ng/ml solution for 48 hours
From the text: The present gene was deduced to be a factor involved in the signal transduction system for plant hormones, taking note of the facts that the present gene was expressed in all plant bodies and that pleiotropic influences resulted from destroying this gene, as well as the possibility that the gene might be a factor involved in the signal transduction system. Presuming that the signal transduction system is that for brassinosteroid hormone in view of the resultant upright form, the inventors performed a leaf blade bend response test as a brassinosteroid response test, by using brassinolide, which is one kind of brassinosteroid hormone. The second leaf of rice which was allowed to germinate in the dark was cut off, and immersed in a 1 ng/ml of brassinosteroid solution for 48 hours.

CC(C)[C@H](C)[C@@H](O)[C@H](O)[C@@H](C)[C@H]1CC[C@H]2[C@@H]3COC(=O)[C@H]4C[C@H](O)[C@H](O)C[C@]4(C)[C@H]3CC[C@]12C [brassinolide]
bending of the leaf blades and leaf sheath junctions (Tos17-insertion mutant individuals (A0369, NC6148)): showed little bending thereof | bending of the leaf blades and leaf sheath junctions (wild type individuals (Akitakomachi, Nipponbare)): showed bending of the leaf blades and leaf sheath junctions
